Where two headings read alike, the source gives them in different places.
Columns and labels:
Type in all cases: in vivo
[1] = system: pigweed (Amaranthus retroflexus); assay: Test A greenhouse herbicide test, pre- and postemergence; conditions: for pest or weed control at 1000 g/ha: Amaranthus retroflexus, 240 h, 1000 g ai/ha
Description: (§1) Seeds of plant species selected from barnyardgrass (Echinochloa crus-galli), kochia (Kochia scoparia), ragweed (common ragweed, Ambrosia elatior), ryegrass, Italian (Italian ryegrass, Lolium multiflorum), crabgrass, large (large crabgrass, Digitaria sanguinalis), foxtail, giant (giant foxtail, Setaria faberii), momingglory (Ipomoea spp.), pigweed (Amaranthus retroflexus), velvetleaf (Abutilon theophrasti), wheat (Triticum aestivum), and corn (Zea mays) were planted into a blend of loam soil and sand and treated preemergence with a directed soil spray using test chemicals formulated in a non-phytotoxic solvent mixture which included a surfactant.
(§2) At the same time, plants selected from these crop and weed species and also blackgrass (Alopecurus myosuroides), and galium (catchweed bedstraw, Galium aparine) were planted in pots containing the same blend of loam soil and sand and treated with postemergence applications of test chemicals formulated in the same manner. Plants ranged in height from 2 to 10 cm and were in the one- to two-leaf stage for the postemergence treatment. Treated plants and untreated controls were maintained in a greenhouse for approximately 10 d, after which time all treated plants were compared to untreated controls and visually evaluated for injury. Plant response ratings, summarized in Table A, are based on a 0 to 100 scale where 0 is no effect and 100 is complete control. A dash (-) response means no test result.

[2] = system: barnyardgrass (Echinochloa crus-galli); assay: as above; conditions: for pest or weed control at 1000 g/ha: Echinochloa crus-galli, 240 h, 1000 g ai/ha
Description: as §1, §2

corn (Zea mays) = assay: as above; conditions: Postemergence
Description: as §1, §2

[3] = system: ryegrass, Italian (Italian ryegrass, Lolium multiflorum); assay: as above; conditions: for pest or weed control at 1000 g/ha: Lolium multiflorum, 240 h, 1000 g ai/ha
Description: as §1, §2

kochia (Kochia scoparia) = assay: as above; conditions: for pest or weed control at 1000 g/ha: Bassia scoparia, 240 h, 1000 g ai/ha
Description: as §1, §2

[4] = system: ragweed (common ragweed, Ambrosia elatior); assay: as above; conditions: for pest or weed control at 1000 g/ha: Ambrosia artemisiifolia, 240 h, 1000 g ai/ha
Description: as §1, §2

[5] = system: foxtail, giant (giant foxtail, Setaria faberii); assay: as above; conditions: for pest or weed control at 1000 g/ha: Setaria faberi, 240 h, 1000 g ai/ha
Description: as §1, §2

[6] = system: wheat (Triticum aestivum); assay: as above; conditions: Postemergence
Description: as §1, §2

[7] = system: barnyardgrass (Echinochloa crus-galli); assay: Test B flooded paddy test; conditions: 250 g ai/ha, Flood, visual rating on scale of 0 to 100 where 0 is no effect and 100 is complete control, 13 to 15 d after treatment
Method: (§3) Plant species in the flooded paddy test selected from rice (Oryza sativa), sedge, umbrella (small-flower umbrella sedge, Cyperus difformis), ducksalad (Heteranthera limosa), and barnyardgrass (Echinochloa crus-galli) were grown to the 2-leaf stage for testing. At time of treatment, test pots were flooded to 3 cm above the soil surface, treated by application of test compounds directly to the paddy water, and then maintained at that water depth for the duration of the test. Treated plants and controls were maintained in a greenhouse for 13 to 15 d, after which time all species were compared to controls and visually evaluated. Plant response ratings, summarized in Table B, are based on a scale of 0 to 100 where 0 is no effect and 100 is complete control. A dash (-) response means no test result.

[8] = system: sedge, umbrella (small-flower umbrella sedge, Cyperus difformis); assay: Test B flooded paddy test; conditions: 250 g ai/ha, Flood, visual rating on scale of 0 to 100 where 0 is no effect and 100 is complete control, 13 to 15 d after treatment
Method: as §3

rice (Oryza sativa) = assay: Test B flooded paddy test; conditions: 250 g ai/ha, Flood, visual rating on scale of 0 to 100 where 0 is no effect and 100 is complete control, 13 to 15 d after treatment
Method: as §3

[9] = system: ducksalad (Heteranthera limosa); assay: Test B flooded paddy test; conditions: 250 g ai/ha, Flood, visual rating on scale of 0 to 100 where 0 is no effect and 100 is complete control, 13 to 15 d after treatment
Method: as §3

[10] = system: blackgrass (Alopecurus myosuroides); assay: Test A greenhouse herbicide test, postemergence
Summary of the method: (§4)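 Scores are visual injury ratings from 0 (no effect) to 100 (complete control) versus untreated plants, taken roughly 10 d after treatment in the greenhouse. Treatment was postemergence, on one- to two-leaf plants 2–10 cm high growing in a loam soil/sand mix.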

[11] = system: galium (catchweed bedstraw, Galium aparine); assay: Test A greenhouse herbicide test, postemergence
Summary of the method: as §4

[12] = Postemergence, 125 g ai/ha, 0 to 100 scale where 0 is no effect and 100 is complete control
[13] = Postemergence, 500 g ai/ha, 0 to 100 scale, 0 is no effect, 100 is complete control
[14] = Preemergence, 125 g ai/ha, 0 to 100 scale where 0 is no effect and 100 is complete control
[15] = Preemergence, 500 g ai/ha, 0 to 100 scale, 0 no effect, 100 complete control
[16] = 125 g ai/ha, 0 to 100 scale where 0 is no effect and 100 is complete control
[17] = 500 g ai/ha, 0 to 100 scale, 0 is no effect, 100 is complete control

Structure (SMILES): CCc1ccc2oc(C)c(-c3c(O)c(C)nn(C)c3=O)c2c1 [Compound 13, 4-(5-ethyl-2-methyl-3-benzofuranyl)-5-hydroxy-2,6-dimethyl-3(2H)-pyridazinone]
- pest or weed control at 1000 g/ha ([1]; post-emergence, Postemergence, 0 to 100 scale, 0 is no effect, 100 is complete control, read-out: Pigweed plant response rating): 20%
- pest or weed control at 1000 g/ha ([1]; pre-emergence, Preemergence, 0 to 100 scale, 0 no effect, 100 complete control, read-out: Plant response rating, Pigweed): 0%
- pest or weed control at 1000 g/ha ([2]; post-emergence, Postemergence, 0 to 100 scale, 0 is no effect, 100 is complete control, read-out: Barnyardgrass plant response rating): 80%
- pest or weed control at 1000 g/ha ([2]; pre-emergence, Preemergence, 0 to 100 scale, 0 no effect, 100 complete control, read-out: Plant response rating, Barnyardgrass): 60%
- plant injury at 1000 g/ha (corn (Zea mays); Zea mays, post-emergence, 240 h, 1000 g ai/ha, 0 to 100 scale, 0 is no effect, 100 is complete control, read-out: Corn plant response rating): 20%
- pest or weed control at 1000 g/ha ([3]; post-emergence, Postemergence, 0 to 100 scale, 0 is no effect, 100 is complete control, read-out: Ryegrass, Italian plant response rating): 70%
- pest or weed control at 1000 g/ha ([3]; pre-emergence, Preemergence, 0 to 100 scale, 0 no effect, 100 complete control, read-out: Plant response rating, Ryegrass, Italian): 60%
- pest or weed control at 1000 g/ha (kochia (Kochia scoparia); post-emergence, Postemergence, 0 to 100 scale, 0 is no effect, 100 is complete control, read-out: Kochia plant response rating): 30%
- pest or weed control at 1000 g/ha (kochia (Kochia scoparia); pre-emergence, Preemergence, 0 to 100 scale, 0 no effect, 100 complete control, read-out: Plant response rating, Kochia): 20%
- pest or weed control at 1000 g/ha ([4]; post-emergence, Postemergence, 0 to 100 scale, 0 is no effect, 100 is complete control, read-out: Ragweed plant response rating): 30%
- pest or weed control at 1000 g/ha ([4]; pre-emergence, Preemergence, 0 to 100 scale, 0 no effect, 100 complete control, read-out: Plant response rating, Ragweed): 0%
- pest or weed control at 1000 g/ha ([5]; post-emergence, Postemergence, 0 to 100 scale, 0 is no effect, 100 is complete control, read-out: Foxtail, Giant plant response rating): 80%
- pest or weed control at 1000 g/ha ([5]; pre-emergence, Preemergence, 0 to 100 scale, 0 no effect, 100 complete control, read-out: Plant response rating, Foxtail, Giant): 50%
- plant injury at 1000 g/ha ([6]; Triticum aestivum, post-emergence, 240 h, 1000 g ai/ha, 0 to 100 scale, 0 is no effect, 100 is complete control, read-out: Wheat plant response rating): 20%
- pest or weed control at 250 g/ha ([7]; Echinochloa crus-galli, 360 h, read-out: Plant response rating, Barnyardgrass): 0%
- pest or weed control at 250 g/ha ([8]; Cyperus difformis, 360 h, read-out: Plant response rating, Sedge, Umbrella): 0%
- plant injury at 250 g/ha (rice (Oryza sativa); Oryza sativa, 360 h, read-out: Plant response rating, Rice): 0%
- pest or weed control at 250 g/ha ([9]; Heteranthera limosa, 360 h, read-out: Plant response rating, Ducksalad): 0%
- pest or weed control at 1000 g/ha ([10]; Alopecurus myosuroides, post-emergence, 240 h, 1000 g ai/ha, 0 to 100 scale, 0 is no effect, 100 is complete control, read-out: Blackgrass plant response rating): 30%
- pest or weed control at 1000 g/ha ([11]; Galium, post-emergence, 240 h, 1000 g ai/ha, 0 to 100 scale, 0 is no effect, 100 is complete control, read-out: Galium plant response rating): 70%

Structure (SMILES): Cc1cc(C)c2sc(C)c(-c3c(OC(=O)C(C)(C)C)c(C)nn(C)c3=O)c2c1 [Compound 43]
- Plant response rating, Pigweed [1, 12]: 0
- Pigweed plant response rating [1, 13]: 10
- Pigweed plant response rating [1, 14]: 0
- Plant response rating, Pigweed [1, 15]: 10
- Plant response rating, Barnyardgrass [2, 12]: 0
- Barnyardgrass plant response rating [2, 13]: 30
- Barnyardgrass plant response rating [2, 14]: 0
- Plant response rating, Barnyardgrass [2, 15]: 10
- Plant response rating, Corn (corn (Zea mays); [16]): 0
- Corn plant response rating (corn (Zea mays); [17]): 0
- Plant response rating, Ryegrass, Italian [3, 12]: 40
- Ryegrass, Italian plant response rating [3, 13]: 60
- Ryegrass, Italian plant response rating [3, 14]: 10
- Plant response rating, Ryegrass, Italian [3, 15]: 70
- Plant response rating, Kochia (kochia (Kochia scoparia); [12]): 0
- Kochia plant response rating (kochia (Kochia scoparia); [13]): 10
- Kochia plant response rating (kochia (Kochia scoparia); [14]): 50
- Plant response rating, Kochia (kochia (Kochia scoparia); [15]): 20
- Plant response rating, Ragweed [4, 12]: 0
- Ragweed plant response rating [4, 13]: 0
- Ragweed plant response rating [4, 14]: 0
- Plant response rating, Ragweed [4, 15]: 10
- Plant response rating, Foxtail, Giant [5, 12]: 0
- Foxtail, Giant plant response rating [5, 13]: 70
- Foxtail, Giant plant response rating [5, 14]: 0
- Plant response rating, Foxtail, Giant [5, 15]: 50
- Plant response rating, Wheat [6, 16]: 0
- Wheat plant response rating [6, 17]: 0
- Plant response rating, Barnyardgrass [7]: 0
- Plant response rating, Sedge, Umbrella [8]: 0
- Plant response rating, Rice (rice (Oryza sativa)): 0
- Plant response rating, Ducksalad [9]: 0
- Plant response rating, Blackgrass [10, 16]: 30
- Blackgrass plant response rating [10, 17]: 80
- Plant response rating, Galium [11, 16]: 50
- Galium plant response rating [11, 17]: 90

Source: patent publication US10597388B2, “Pyridazinone herbicides” (FMC CORPORATION, priority 2014, dated 2020)
